Patent publication US9375411B2, “Uses and methods for the treatment of liver diseases or conditions” (Verlyx Pharma Inc., priority 2012, dated 2016)
Several values for one entry are separate records, joined by “and”; a condition that tells them apart may be missing. Identical values can stand only once. Like-named read-outs stand apart in the source and are kept apart here.

Tests used:
[1] = Repeat dose oral capsule or intravenous infusion, tissue concentrations and ratios; format: in vivo, Male Beagle Dogs; settings: Beagle dogs; for Kp / Tmax / AUC(0-t) / Cmax: male, dog
Method: Pharmacokinetics Study in Male Beagle Dogs. Three oral formulations were tested.
In this example, the pharmacokinetics and biodistribution are studied in Male Beagle Dogs. The Dog is a relevant model since the elimination rate from the different organs, mainly the liver, are closer to that observed in man. Three oral formulations were tested and compared to the injectable formulation: […]
The test item dosing formulation was administered once daily as a 2-hour intravenous infusion via the saphenous and/or cephalic vein using an infusion pump, using a temporary peripheral vein catheter attached to a syringe, for 2 consecutive days. The dose volume was 4 mL/kg and the infusion rate was 2 mL/kg/hour for all animals. The actual volume administered to each animal was calculated and adjusted based on the most recent practical body weight of each animal. The catheter was flushed with 0.9% Sodium Chloride for Injection, USP (saline) in order to ensure that the whole intended dose was administered to the animals, after which the temporary catheter was removed and discarded.
The test item was administered twice daily (targeted time: 12 hours apart) by oral capsule administration for 3 consecutive days to fasted animals (at least 4 hours prior to dosing). Food was returned 2 hours post-dose.
The number of capsules to be administered to each animal was fixed to 2 capsules/animals/occasion. If needed, following dosing, the oral cavity was rinsed with an appropriate volume of reverse osmosis water to facilitate swallowing. The oral cavity was inspected following dosing to ensure that the capsules have been swallowed.
The following tables present the different Pharmacokinetic parameters for IV and PO groups, the concentrations of pentamidine in different tissues and the tissue to blood and tissue to liver concentration ratios.

NASH-like pathology = test: Diabetic and high-fat diet model (STAM mice, NASH-like pathology); format: in vivo, C57BL/6 mice; settings: high dose group (25 mg/kg IP three times a week, 6-9 wks)
Method: In this experiment, NASH-like pathology is induced in C57BL/6 mice by a single subcutaneous injection of 200 ug streptozotocin 2 days after birth and feeding with high fat diet (HFD, 57 kcal % fat, cat#: HFD32, CLEA Japan, Japan) after 4 weeks of age (STAM mice). Vehicle or pentamidine treatment was administered three times a week from 6 to 9 weeks of age. Vehicle (0.9% NaCl) and PENTAMIDINE were administered by intraperitoneal route in a volume of 10 mL/kg.

[2] = system: chemokines interleukin (IL)-8, GRO alpha and MCP-1; settings: human whole blood, cited from earlier work
[3] = Repeat dose oral tablet or intravenous infusion, biodistribution and tissue elimination; settings: Beagle dogs
[4] = Oral bioavailability and biodistribution of pentamidine salts
Method: In this experiment, HCl, isethionate and tosylate salts of pentamidine were administered orally to mice and their PK and tissue accumulations were compared.
PK parameters for pentamidine salt following oral administration of 200 mg/kg in mice.
Biodistribution of Pentamidine Salts in mice, 24 hours after PO administration of 200 mg/kg.

in vivo = settings: female, Fox Chase SCID CB17, mouse, oral
[5] = system: GalN/LPS fulminant liver injury; test: GalN/LPS fulminant liver injury model; format: in vivo; settings: mice; for Serum ALT / Serum ALT levels reduced relative to PBS vehicle: 6.5 hours
Method: To evaluate the anti-inflammatory, anti-TNFα and hepato-protective properties of PENTAMIDINE, a Galactosamine/Liposaccharide (GalN/LPS) fulminant liver injury model was used.
Three independent experiments on mice untreated or pretreated with vehicle, compound PENTAMIDINE (isethionate salt) at doses of 25 and 40 mg/kg. PENTAMIDINE is dosed IP 30-minutes prior to the co-treatment with subtoxic doses of hepatotoxin GalN and immune stimulant LPS. Mice were sacrificed at 6.5 hours after GalN/LPS for analysis. The analysis of alanine transaminase (ALT) serum levels and histological observations allow the evaluation of the hepato-protective, anti-TNF-α, anti-inflammatory and/or anti-fibrotic activity.
To evaluate the anti-inflammatory, anti-TNFα and hepatoprotective properties of different pentamidine salt such as pentamidine bis-HCl (penta-HCL) and pentamidine tosylate (penta-Tos), a Galactosamine/Liposaccharide (GalN/LPS) fulminant liver injury model was used.
Pentamidine HCl and Tosylate were dosed IP 30-minutes prior to the co-treatment with subtoxic doses of hepatotoxin GalN and immune stimulant LPS. Mice were sacrificed at 6.5 hours after GalN/LPS for analysis. The analysis of alanine transaminase (ALT) serum levels and histological observations allow the evaluation of the hepato-protective, anti-TNF-α, anti-inflammatory and/or anti-fibrotic activity. Results

[6] = intravenous dosing, individual animals 1001-1006 and Mean
[7] = summary (group mean), Group 1 IV, Groups 2-4 oral capsules
[8] = mice, 24 hours after PO 200 mg/kg, listed as Penta-Ise, 200 mg/kg
[9] = mice, oral 200 mg/kg, blood, listed as Isethionate salt, 200 mg/kg
[10] = IP 25 mg/kg 30 minutes prior to GalN/LPS
[11] = IP 40 mg/kg 30 minutes prior to GalN/LPS

## N=C(N)c1ccc(OCCCCCOc2ccc(C(=N)N)cc2)cc1 [pentamidine, pentamidine bis(2-hydroxyethanesulfonate)]
[1]; IV dosing, Day 1
  Liver AUClast: 27072 µM·h
  Liver Cmax: 210 µM
  Lung AUClast: 1807.2 µM·h
  Lung Cmax: 13.4 µM
[1]; IV, *Based on AUC
  Tissue-to-Liver Lung, based on AUC: 6.67* %
  Tissue-to-Liver Muscle, based on AUC: 2.9* %
  Tissue-to-Liver Skin, based on AUC: 0.87* %
[1]; [6]
  Concentration Blood: 0.16 μmol/L and 0.07 μmol/L and 0.08 μmol/L (2×) and 0.121 μmol/L and 0.25 μmol/L
  Concentration Brain: 0.80 μmol/L (3×) and 0.70 μmol/L and 0.90 μmol/L and 0.50 μmol/L
  Concentration Heart: 22.30 µM and 13.90 µM and 15.80 µM and 20.20 µM and 10.10 µM and 14.20 µM
  Concentration Kidney: 53.10 µM and 38.30 µM and 48.70 µM and 55.80 µM and 44.80 µM and 39.70 µM
  Concentration Liver: 208 µM and 174 µM and 168 µM and 210 µM and 125 µM and 159 µM
  Concentration Lung: 11.56 µM and 11.52 µM and 13.39 µM and 10.48 µM and 9.80 µM and 11.80 µM
  Concentration Muscle: 5.28 µM and 4.98 µM and 5.29 µM and 6.11 µM and 2.82 µM and 5.56 µM
  Concentration Pancreas: 8.50 µM and 6.00 µM and 8.00 µM and 8.20 µM and 4.60 µM and 7.10 µM
  Concentration Skin: 1.45 μmol/L and 1.23 μmol/L and 1.41 μmol/L and 1.80 μmol/L and 1.63 μmol/L (2×)
[1]; [7]
  Tissue-to-Liver Brain: 0.46%
  Tissue-to-Liver Heart: 9.66%
  Tissue-to-Liver Kidney: 28.4%
  Tissue-to-Liver Lung: 6.74%
  Tissue-to-Liver Muscle: 2.9%
  Tissue-to-Liver Pancreas: 4.34%
  Tissue-to-Liver Skin: 0.91%
[1]; Beagle, brain/blood, intravenous, summary (group mean), Group 1 IV, Groups 2-4 oral capsules, read-out: Tissue-to-blood ratio Brain
  Kp: 6.19
[1]; Beagle, heart/blood, intravenous, summary (group mean), Group 1 IV, Groups 2-4 oral capsules, read-out: Tissue-to-blood ratio Heart
  Kp: 133
[1]; Beagle, kidney/blood, intravenous, summary (group mean), Group 1 IV, Groups 2-4 oral capsules, read-out: Tissue-to-blood ratio Kidney
  Kp: 386
[1]; Beagle, liver/blood, intravenous, summary (group mean), Group 1 IV, Groups 2-4 oral capsules, read-out: Tissue-to-blood ratio Liver
  Kp: 1690
[1]; Beagle, liver/blood, iv, 4 mg/kg/day, IV, *Based on AUC, read-out: Tissue-to-blood ratio Liver, based on AUC
  Kp: 922
[1]; Beagle, lung/blood, intravenous, summary (group mean), Group 1 IV, Groups 2-4 oral capsules, read-out: Tissue-to-blood ratio Lung
  Kp: 111
[1]; Beagle, lung/blood, iv, 4 mg/kg/day, IV, *Based on AUC, read-out: Tissue-to-blood ratio Lung, based on AUC
  Kp: 61.6
[1]; Beagle, muscle/blood, intravenous, summary (group mean), Group 1 IV, Groups 2-4 oral capsules, read-out: Tissue-to-blood ratio Muscle
  Kp: 48.7
[1]; Beagle, muscle/blood, iv, 4 mg/kg/day, IV, *Based on AUC, read-out: Tissue-to-blood ratio Muscle, based on AUC
  Kp: 8.01
[1]; Beagle, pancreas/blood, intravenous, summary (group mean), Group 1 IV, Groups 2-4 oral capsules, read-out: Tissue-to-blood ratio Pancreas
  Kp: 58.4
[1]; Beagle, skin/blood, intravenous, summary (group mean), Group 1 IV, Groups 2-4 oral capsules, read-out: Tissue-to-blood ratio Skin
  Kp: 14.4
[1]; Beagle, skin/blood, iv, 4 mg/kg/day, IV, *Based on AUC, read-out: Tissue-to-blood ratio Skin, based on AUC
  Kp: 26.8
[1]; beagle, brain / blood, iv, intravenous dosing, individual animals and mean, read-out: Tissue-to-blood ratio Brain
  Kp: 4.13
[1]; beagle, kidney / blood, iv, intravenous dosing, individual animals and mean, read-out: Tissue-to-blood ratio Kidney
  Kp: 370
[1]; beagle, pancreas / blood, iv, intravenous dosing, individual animals and mean, read-out: Tissue-to-blood ratio Pancreas
  Kp: 38
[1]; liver, 4 mg/kg/day, IV dosing, Day 1, read-out: Liver Tmax
  Tmax: 168 h
[1]; lung, 4 mg/kg/day, IV dosing, Day 1, read-out: Lung Tmax
  Tmax: 120 h
[1]; muscle, 4 mg/kg/day, IV dosing, Day 1, read-out: Muscle AUClast
  AUC(0-t): 786 µM·h
[1]; muscle, 4 mg/kg/day, IV dosing, Day 1, read-out: Muscle Cmax
  Cmax: 6.1 µM
[1]; muscle, 4 mg/kg/day, IV dosing, Day 1, read-out: Muscle Tmax
  Tmax: 168 h
[1]; skin, 4 mg/kg/day, IV dosing, Day 1, read-out: Skin AUClast
  AUC(0-t): 235 µM·h
[1]; skin, 4 mg/kg/day, IV dosing, Day 1, read-out: Skin Cmax
  Cmax: 1.8 µM
[1]; skin, 4 mg/kg/day, IV dosing, Day 1, read-out: Skin Tmax
  Tmax: 168 h
NASH-like pathology
  Liver weights: close to normal mice control values
  fibrosis formation (Sirius Red staining): trend for reduction
[2]; 10 microM
  PHA-induced generation of IL-6: partial inhibition
  PHA-induced generation of TNF-alpha, IL-1 beta, IL-2, IL-4, IL-5, IL-10 and IFN-gamma: no significant inhibitory effect
[2]
  LPS- and PHA-stimulated whole blood generation of chemokines IL-8, GRO alpha, MCP-1: dose-dependently suppress
[3]; instant-release tablet
  Biodistribution in organs following PO administration: favored the liver
[3]; instant-release tablet PO vs IV, normalized liver concentrations
  exposure to the pancreas and kidney, PO versus IV administration: significantly lower exposure
[4]; [8]
  Tissue Concentration Kidney: 5.0 µM
  Tissue Concentration Liver: 5.6 µM
  Tissue Concentration Lung: 2.7 µM
  Tissue Concentration Pancreas: 1.3 µM
[4]; mice, oral 200 mg/kg, based on the iv AUC at 5 mg/kg of 19.08, listed as Isethionate salt
  F*: 3.0
[4]; [9]
  AUCINF: 23.0 µM·h
  Cl/F: 255 mL/min/kg
  Cmax: 3.06 µM
  MRT: 52.8 h
  Tmax: 3.33 h
  t½: 44.5 h
[4]; mouse, in vivo, iv, 5 mg/kg
  AUC: 19.1 µM·h
In vivo
  bioavailability: ~1%
[5]; GalN/LPS, P<0.0002 as compared to PBS+GalN/LPS
  Numbers of TUNEL-positive cells per high power field in the livers: significantly decreased
[5]; [10]
  Serum ALT: 402+/−105
  Serum ALT levels reduced relative to PBS vehicle: 93%
[5]; [11]
  Serum ALT: 177+/−44
  Serum ALT levels reduced relative to PBS vehicle: 97%
